Test results: PubChem BioAssay AID2305 (GlaxoSmithKline (GSK), 2010)

tested on: P. falciparum 3D7 growth, pLDH absorbance; assay: P. falciparum 3D7 growth inhibition, dose response, strain 3D7 (AID 2305)

Q: How did the IC50 turn out when `CCCCN1CCN(CC(O)CNC(=O)Nc2ccc(Cl)cc2)CC1` (stereo not drawn) was run?
A: Its IC50 is 70 nM.

Q: `N#Cc1ccc(N(CCOc2ccc(Cl)c(F)c2)Cc2ccccc2C(F)(F)F)cc1C(F)(F)F` was tested. Which IC50 did it give?
A: The IC50 was 680 nM.

Q: Which IC50 does the source give for `COc1cc2nc(N3CCC(CCCC4CCNCC4)CC3)nc(NCc3ccccn3)c2cc1OC` here?
A: The IC50 was 760 nM.

Q: With `CN1CC[C@@H](Oc2cc(CNC(=O)c3ccc(-c4ccc(Cl)cc4)s3)ccc2C(F)(F)F)C1` as the molecule, how does the IC50 read?
A: Its IC50 is 1030 nM.

Q: With `Cc1nc(-c2cccc(Nc3nccc(NCC(O)c4ccccc4C(F)(F)F)n3)c2)cs1` (stereo not drawn) as the molecule, how does the IC50 read?
A: Its IC50 is 830 nM.

Q: How did the IC50 turn out when `CN(C)CC(=O)NCC(NCCCNc1cc(=O)c2ccccc2[nH]1)c1cc(Br)cc(Br)c1` (stereo not drawn) was run?
A: Its IC50 is 1050 nM.

Q: Which IC50 does the source give for `CCOC(=O)c1[nH]c(-c2cc(Cl)nc(Cl)c2)nc1NC(=S)NCc1ccc(NS(C)(=O)=O)cc1` here?
A: The IC50 was 890 nM.

Q: For `Nc1ccc(-c2nc3c(ccc4ccccc43)[nH]2)cc1`, which IC50 is on record?
A: Its IC50 is 940 nM.

Q: How did the IC50 turn out when `COc1cccc(NC(=O)[C@H](C)n2c(=O)[nH]c3ccccc3c2=O)c1` was run?
A: Its IC50 is 760 nM.

Q: With `COc1ccc(S(=O)(=O)Nc2cc(Br)cc3c2OCCC3)cc1N1CCN(C(=O)C(Cl)(Cl)Cl)CC1` as the molecule, how does the IC50 read?
A: The IC50 was 870 nM.

Q: `NC(=O)CNC(=O)CCCN=C(N)N` was tested. Which IC50 did it give?
A: The IC50 was 170 nM.

Q: `O=C(NCc1cccs1)[C@H](Cc1ccccc1)Nc1ccnc(NCC2CCCCC2)n1` was tested. Which IC50 did it give?
A: Its IC50 is 1050 nM.

Q: How did the IC50 turn out when `Cc1c(Cl)ccc2c(C(=O)Nc3ccncc3)cc(-c3cccnc3)nc12` was run?
A: Its IC50 is 780 nM.

Q: For `CN(CCCc1c[nH]c2ccccc12)CC1CCN(C(=O)/C=C/c2ccc(Cl)c(Cl)c2)CC1`, which IC50 is on record?
A: Its IC50 is 750 nM.

Q: For `CCCCN(CCCC)CCCN(CCCN(CCCC)CCCC)c1cc(C)nc(Nc2ccc(Cl)cc2)n1`, which IC50 is on record?
A: The IC50 was 370 nM.

Q: With `CN1CCN(CCCN(Cc2ccc(-c3ccc(CNC4CCCC4)cc3)cc2)C(=O)CCC2CCCC2)CC1` as the molecule, how does the IC50 read?
A: Its IC50 is 890 nM.

Q: Which IC50 does the source give for `C=C(NC(=O)c1cc(C)cc(C)c1)C(=O)OC` here?
A: The IC50 was 170 nM.

Q: How did the IC50 turn out when `CS(=O)(=O)NCCCNCc1ccc(-c2ccc(-c3nc4ccc(C(F)(F)F)cc4[nH]3)s2)cc1` was run?
A: Its IC50 is 510 nM.

Q: Which IC50 does the source give for `Cn1ccc2c3c(N)nc(N)nc3ccc21` here?
A: The IC50 was 900 nM.

Q: For `O=C(Nc1cc(Cl)ccc1-n1cncn1)C1(c2ccccc2)CC1`, which IC50 is on record?
A: The IC50 was 450 nM.

Q: For `O=C(CCN1C(=O)c2ccccc2C1=O)N1CCN(CC=Cc2ccccc2)CC1`, which IC50 is on record?
A: The IC50 was 540 nM.

Q: Which IC50 does the source give for `O=C(c1ccc(O)c(-c2cc(Cl)cc(Cl)c2)c1)N1CCCC1` here?
A: The IC50 was 1000 nM.

Q: With `CN1[C@@H]2CC[C@H]1c1cc(NC(=O)c3cc(-c4ccc(Cl)cc4)cs3)ccc12` as the molecule, how does the IC50 read?
A: The IC50 was 1300 nM.

Q: Which IC50 does the source give for `Cc1cc(C(=O)N[C@H]2CCN(Cc3ccc(OCCCN(C)C)cc3)C2)ccc1Br` here?
A: Its IC50 is 900 nM.

Q: `CCOc1cc(C(=O)NCCN(C(C)C)C(C)C)ccc1-c1nc2ccc(Cl)cc2[nH]1` was tested. Which IC50 did it give?
A: The IC50 was 780 nM.

Q: How did the IC50 turn out when `OC(CNC1CCCCC1)Cn1c2ccc(Br)cc2c2cc(Br)ccc21` (stereo not drawn) was run?
A: Its IC50 is 300 nM.

Q: With `CN(C)CCCOc1c(C(C)(C)C)cc(-c2cc(C(C)(C)C)c(OCCCN(C)C)c(C(C)(C)C)c2)cc1C(C)(C)C` as the molecule, how does the IC50 read?
A: The IC50 was 270 nM.

Q: How did the IC50 turn out when `O=C(NC1CCC(CN2CCC(c3c[nH]c4ccccc34)CC2)CC1)C1(O)c2ccccc2-c2ccccc21` (stereo not drawn) was run?
A: The IC50 was 1190 nM.

Q: How did the IC50 turn out when `CCn1cc2c3c(cc(C(=O)N[C@@H](Cc4ccccc4)[C@H](O)CNC4CCOCC4)cc31)N(C)S(=O)(=O)CC2` was run?
A: Its IC50 is 210 nM.

Q: How did the IC50 turn out when `CN(C)CCCn1cncc1-c1ccc2ncnc(Nc3ccc(OCc4ccccc4)cc3)c2c1` was run?
A: Its IC50 is 520 nM.

Q: For `Clc1ccc(C2CCN(CCCOc3ccc4c(c3)CCNCC4)CC2)cc1`, which IC50 is on record?
A: The IC50 was 750 nM.

Q: Which IC50 does the source give for `CCc1ccc(NC(=O)c2cccc(CN3CCCN(CC4CCCCC4)CC3)c2)cc1` here?
A: The IC50 was 950 nM.

Q: For `COc1ccc(CNC(=O)Nc2cc3cc(-c4ccc(CN5CCCC5)cc4)ccc3n3c(C)nnc23)cc1`, which IC50 is on record?
A: Its IC50 is 650 nM.

Q: With `CC(CN1CCN(C)CC1)C(=O)Nc1ccc(-c2ccc(-c3nc4ccc(F)cc4[nH]3)cc2)cc1` (stereo not drawn) as the molecule, how does the IC50 read?
A: The IC50 was 790 nM.

Q: For `COc1ccc(OC)c(NC(=O)CSc2nc(-c3ccccc3Cl)ns2)c1`, which IC50 is on record?
A: The IC50 was 830 nM.

Q: Which IC50 does the source give for `CN1CCC(Oc2ccc(CN3CC[C@H](NC(=O)c4ccc(Cl)c(Cl)c4)C3)cc2Cl)C1` (stereo partly drawn) here?
A: Its IC50 is 880 nM.

Q: Which IC50 does the source give for `Clc1ccc(OCCC2CCN(CCCCCCN3CCCCC3)CC2)cc1Cl` here?
A: Its IC50 is 1140 nM.

Q: Which IC50 does the source give for `CCC(=O)N(c1ccccc1)C1CCN(CCCC(NC(=O)Nc2cc(C(F)(F)F)cc(C(F)(F)F)c2)c2ccc(Cl)c(Cl)c2)CC1` (stereo not drawn) here?
A: The IC50 was 670 nM.

Q: `COc1cccc(-c2csc(C(=O)NCC3CCN(Cc4ccc(C(C)(C)C)cc4)C3)c2)c1` (stereo not drawn) was tested. Which IC50 did it give?
A: Its IC50 is 1180 nM.

Q: With `Cc1cc(NN=Cc2ccc([N+](=O)[O-])cc2)c2ccc(F)cc2n1` as the molecule, how does the IC50 read?
A: The IC50 was 890 nM.

Q: For `COc1ccc2nc(C)cc(NN=Cc3ccc(F)cc3)c2c1`, which IC50 is on record?
A: The IC50 was 190 nM.

Q: Which IC50 does the source give for `Cc1cccc2[nH]c(-c3ccc(-c4cccc(NC(=O)CCc5cnc[nH]5)c4)s3)nc12` here?
A: The IC50 was 840 nM.

Q: `COCCNCc1cccc(-c2ccc3c(Nc4cc(O)c(Cl)cc4F)ccnc3c2)c1` was tested. Which IC50 did it give?
A: Its IC50 is 110 nM.

Q: With `Nc1cnc(C#Cc2cc3ncnc(N(CCN4CCOCC4)c4ccc(OCc5cccc(F)c5)c(Cl)c4)c3s2)cn1` as the molecule, how does the IC50 read?
A: The IC50 was 1050 nM.

Q: With `O=C(Cc1cnc[nH]1)Nc1ccc(-c2ccc(-c3nc4ccc(C(F)(F)F)cc4[nH]3)s2)cc1` as the molecule, how does the IC50 read?
A: The IC50 was 660 nM.

Q: `CN1CCN(C(C(=O)NCc2cc(Cl)cc(Cl)c2)c2ccc(Nc3cccc(C(F)(F)F)c3)cc2)CC1` (stereo not drawn) was tested. Which IC50 did it give?
A: The IC50 was 1120 nM.

Q: For `CCC(=O)N(c1ccccc1)C1CCN(CCCC(NC(=O)c2cc(C(F)(F)F)cc(C(F)(F)F)c2)c2ccc(Cl)c(Cl)c2)CC1` (stereo not drawn), which IC50 is on record?
A: Its IC50 is 800 nM.

Q: How did the IC50 turn out when `COc1ccc(-c2cccc(NC(=O)c3cccc(Cl)c3)c2)cc1CN1CCC(O)CC1` was run?
A: The IC50 was 790 nM.
